# Experimental data taken from ChEMBL document CHEMBL1157133, “Design, synthesis, and interaction study of quinazoline-2(1H)-thione derivatives as novel potential Bcl-xL inhibitors” (J Med Chem, 2010).
# Key:
# K562 = experiment: cells; details: Homo sapiens, K562, 48 h
# Description: Cytotoxicity against human K562 cells after 48 hrs by MTT assay
# Bcl-2-like protein 1 [1] = biological target: T1, Bcl-2-like protein 1 (Homo sapiens, UniProt Q07817); experiment: Inhibition of human Bcl-XL
# Bcl-2-like protein 1 [2] = biological target: T1, Bcl-2-like protein 1; experiment: Displacement of FITC-labeled BH3 peptide from human Bcl-XL after 1 hr by fluorescence polarization assay
# [3] = biological target: Apoptosis regulator Bcl-2 (Homo sapiens, UniProt P10415); experiment: Displacement of FITC labeled BH3 peptide from His-tagged human BCL2 after 1 hr by fluorescence polarization assay
# [4] = Cytotoxicity against human Bel7404 cells after 48 hrs by MTT assay; details: BEL-7404, 48 h
# Bcl-2-like protein 1 [5] = biological target: Bcl-2-like protein 1 (Homo sapiens, UniProt Q07817, Y101A); experiment: Binding affinity to human Bcl-XL Y101A mutant by surface plasma resonance based biosensor system
# [6] = biological target: Induced myeloid leukemia cell differentiation protein Mcl-1 homolog (Mus musculus, UniProt P97287); experiment: Displacement of FITC-labeled BH3 peptide from GST-tagged mouse Mcl1 after 1 hr by fluorescence polarization assay
# A2780 = experiment: cells; details: Homo sapiens, A2780, 48 h
# Description: Cytotoxicity against human A2780 cells after 48 hrs by MTT assay
# OVCAR-3 = experiment: Cytotoxicity against human OVCAR-3 cells after 48 hrs by MTT assay; details: OVCAR-3, 48 h
# PC-3 = experiment: Cytotoxicity against human PC3 cells after 48 hrs by MTT assay; assay type: functional, cell-based; details: for EC50: PC-3, 48 h
# HepG2 = experiment: cells; details: Homo sapiens, HepG2, 48 h
# Description: Cytotoxicity against human HepG2 cells after 48 hrs by MTT assay
# Induced myeloid leukemia cell differentiation protein Mcl-1 homolog, sequence (P97287 whole entry): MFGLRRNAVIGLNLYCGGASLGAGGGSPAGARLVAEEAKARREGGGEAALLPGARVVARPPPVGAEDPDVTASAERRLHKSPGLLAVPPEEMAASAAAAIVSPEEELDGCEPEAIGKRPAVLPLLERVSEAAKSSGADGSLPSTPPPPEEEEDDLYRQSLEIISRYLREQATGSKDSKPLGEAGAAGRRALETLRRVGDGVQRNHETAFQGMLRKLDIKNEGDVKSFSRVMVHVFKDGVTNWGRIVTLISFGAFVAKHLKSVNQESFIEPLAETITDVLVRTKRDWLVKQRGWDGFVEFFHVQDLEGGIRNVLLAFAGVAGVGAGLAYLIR
# Apoptosis regulator Bcl-2, sequence (P10415 whole entry): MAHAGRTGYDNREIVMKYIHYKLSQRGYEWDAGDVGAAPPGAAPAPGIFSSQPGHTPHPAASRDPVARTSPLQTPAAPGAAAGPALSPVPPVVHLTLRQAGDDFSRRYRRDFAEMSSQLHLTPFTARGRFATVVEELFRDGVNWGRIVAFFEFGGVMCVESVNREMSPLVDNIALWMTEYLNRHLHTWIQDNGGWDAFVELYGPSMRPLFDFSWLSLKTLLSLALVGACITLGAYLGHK
# T1 sequence (Q07817 whole entry): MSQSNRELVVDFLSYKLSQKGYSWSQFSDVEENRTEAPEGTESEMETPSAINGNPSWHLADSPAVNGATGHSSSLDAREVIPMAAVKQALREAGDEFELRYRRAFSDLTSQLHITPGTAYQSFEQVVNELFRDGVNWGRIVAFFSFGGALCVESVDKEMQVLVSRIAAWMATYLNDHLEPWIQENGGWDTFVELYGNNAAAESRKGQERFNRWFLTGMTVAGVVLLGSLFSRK
# Bcl-2-like protein 1 (Homo sapiens, UniProt Q07817, Y101A), sequence (Q07817 whole entry Y101A): as the sequence (Q07817 whole entry) above, with Y101A counted along it
EC50 (K562) [µM],IC50 (Bcl-2-like protein 1 [1]) [µM],IC50 (Bcl-2-like protein 1 [2]) [µM],IC50 [3] [µM],Kd (Bcl-2-like protein 1 [5]) [µM],IC50 [6] [µM],EC50 (A2780) [µM],EC50 (HepG2) [µM],Structure (SMILES),EC50 [4] [µM],EC50 (OVCAR-3) [µM],Activity (PC-3),EC50 (PC-3) [µM]
6.42,17.4,17.4,19.4,> 1000,34.4,3.03,9.9,COc1ccc(C2C3=C(N=c4s/c(=C\c5ccc(OCc6cccc(C(=O)O)c6)c(OC)c5)c(=O)n42)c2ccccc2CC3)cc1 (stereo not drawn),7.2,11.7,Dose-dependent effect,> 100
> 100,3,3,3.2,–,8.6,5.81,15.4,O=C(O)c1cccc(-c2ccc(/C=c3\sc4n(c3=O)C(c3cccc(F)c3)C3=C(N=4)c4ccccc4CC3)o2)c1 (stereo not drawn),51.3,12,Dose-dependent effect,> 100
20.8,5.3,–,–,–,–,4.94,35.6,COc1ccccc1C1C2=C(N=c3s/c(=C\c4ccc(-c5cccc(C(=O)O)c5)o4)c(=O)n31)c1ccccc1CC2 (stereo not drawn),140,9.06,–,23.2
> 100,100,–,–,–,–,17.8,32.3,CCOC(=O)COc1cccc(/C=c2\sc3n(c2=O)C(c2ccccc2OC)C2=C(N=3)c3ccccc3CC2)c1 (stereo not drawn),92.3,47.5,–,45
> 100,7.3,7.3,11.1,–,19.2,13.8,> 100,COc1cccc(C2C3=C(N=c4s/c(=C\c5ccc(-c6cccc(C(=O)O)c6)o5)c(=O)n42)c2ccccc2CC3)c1 (stereo not drawn),> 100,7.91,Dose-dependent effect,29.5
> 100,72,–,–,–,–,9.98,175,COc1ccccc1C1C=C(c2ccccc2)N=c2s/c(=C\c3cccc(OCC(=O)O)c3)c(=O)n21 (stereo not drawn),> 500,22.2,–,65.2
–,> 100,–,–,–,–,–,–,COc1ccccc1C1C2=C(N=c3s/c(=C\c4cccc(OCC(=O)O)c4)c(=O)n31)c1cccc(OCc3ccccc3)c1CC2 (stereo not drawn),–,–,–,> 100
7.99,12.1,–,–,–,–,7.81,41.9,COc1ccccc1C1C2=C(N=c3s/c(=C\c4ccccc4OCC(=O)O)c(=O)n31)c1ccccc1CC2 (stereo not drawn),9.5,4.44,Dose-dependent effect,–
5.62,36,–,–,–,–,6.13,15.3,COc1ccccc1C1C2=C(N=c3s/c(=C\c4ccc(OCC(=O)O)cc4)c(=O)n31)c1ccccc1CC2 (stereo not drawn),6.1,2.85,–,11.1
> 100,6.2,–,–,–,–,> 100,> 500,O=C(O)c1cccc(-c2ccc(/C=c3\sc4n(c3=O)C(c3ccccc3F)C3=C(N=4)c4ccccc4CC3)o2)c1 (stereo not drawn),> 500,76.6,–,31.2
> 100,35.9,–,–,–,–,15.8,> 500,O=C(O)c1cccc(-c2ccc(/C=c3\sc4n(c3=O)C(c3ccco3)C3=C(N=4)c4ccccc4CC3)o2)c1 (stereo not drawn),> 500,> 100,Dose-dependent effect,79.5
> 100,40.4,–,–,–,–,15.3,72.8,O=C(O)COc1cccc(/C=c2\sc3n(c2=O)C(c2ccco2)C2=C(N=3)c3ccccc3CC2)c1 (stereo not drawn),14,8.5,Dose-dependent effect,10.2
6.33,19.7,–,–,–,–,7.52,19.9,O=C(O)COc1cccc(/C=c2\sc3n(c2=O)C(c2cccc4ccccc24)C2=C(N=3)c3ccccc3CC2)c1 (stereo not drawn),3.1,2.21,–,68
22.9,13.4,–,–,–,–,6.34,> 500,O=C(O)c1cccc(-c2ccc(/C=c3\sc4n(c3=O)C(c3cccc5ccccc35)C3=C(N=4)c4ccccc4CC3)o2)c1 (stereo not drawn),204,18.7,Dose-dependent effect,24.2
7.04,10.3,–,–,–,–,5.49,14.5,O=C(O)COc1cccc(/C=c2\sc3n(c2=O)C(c2ccccc2)C2=C(N=3)c3ccccc3CC2)c1 (stereo not drawn),7.8,2.73,–,> 100
72.3,6.9,6.9,8,> 1000,18.6,13.1,> 100,COc1ccc(C2C3=C(N=c4s/c(=C\c5ccc(-c6cccc(C(=O)O)c6)o5)c(=O)n42)c2ccccc2CC3)cc1 (stereo not drawn),24.7,7.21,Dose-dependent effect,12
17.3,1.9,–,–,–,–,3.9,13.4,O=C(O)c1cccc(-c2ccc(/C=c3\sc4n(c3=O)C(c3cccc([N+](=O)[O-])c3)C3=C(N=4)c4ccccc4CC3)o2)c1 (stereo not drawn),65.1,26.9,Dose-dependent effect,44.9
> 100,5.4,–,–,–,–,16.9,186,O=C(O)COc1cccc(/C=c2\sc3n(c2=O)C(c2cccc(F)c2)C2=C(N=3)c3ccccc3CC2)c1 (stereo not drawn),50.9,2.8,Dose-dependent effect,> 100
9.41,26.7,–,–,–,–,2.23,7.2,COc1ccccc1C1C2=C(N=c3s/c(=C\c4ccc(-c5cccc(C(=O)O)c5)cc4)c(=O)n31)c1ccccc1CC2 (stereo not drawn),4.5,7.17,–,67.1
–,> 100,–,–,–,–,–,–,COc1ccc2c(c1)CCC1=C2N=c2s/c(=C\c3ccc(-c4cccc(C(=O)O)c4)o3)c(=O)n2C1c1cccc(F)c1 (stereo not drawn),–,–,Dose-dependent effect,35.2
–,6.2,–,–,–,–,–,–,CC(C)C(C(=O)O)C1C(=O)/C(=C/c2ccc(Br)cc2)SC1=S (stereo not drawn),–,–,–,–
> 100,12.6,–,–,–,–,7.46,13.6,O=C(O)c1cccc(-c2ccc(/C=c3\sc4n(c3=O)C(c3ccccc3)C3=C(N=4)c4ccccc4CC3)o2)c1 (stereo not drawn),71.7,18.9,–,> 100
> 100,12.7,–,–,–,–,7.85,49.8,COc1ccccc1C1C2=C(N=c3sc(=Cc4ccc(C=CC(=O)O)cc4)c(=O)n31)c1ccccc1CC2 (stereo not drawn),11.2,3.29,Dose-dependent effect,17.3
> 100,> 100,–,–,–,–,5.36,8,O=C(O)c1cccc(-c2ccc(/C=c3\sc4n(c3=O)C(c3cccc(F)c3)C3=C(N=4)/C(=C/c4cccc(F)c4)CCC3)o2)c1 (stereo not drawn),3.8,11.7,–,51.4
> 100,> 100,–,–,–,–,6.8,15.9,O=C(O)COc1cccc(/C=c2\sc3n(c2=O)C(c2cccc(F)c2)C2=C(N=3)/C(=C/c3cccc(F)c3)CCC2)c1 (stereo not drawn),4.3,3.27,–,12
–,> 100,–,–,–,–,–,–,COc1ccc2c(c1)CCC1=C2N=c2s/c(=C\c3cccc(OCC(=O)O)c3)c(=O)n2C1c1ccccc1OC (stereo not drawn),–,–,–,> 100
16.1,12.6,–,–,–,–,7.94,45,COc1ccccc1C1C2=C(N=c3s/c(=C\c4ccc(C(=O)O)cc4)c(=O)n31)c1ccccc1CC2 (stereo not drawn),9.7,3.35,–,63.5
–,> 100,–,–,–,–,–,–,COc1ccccc1C1C2=C(N=c3s/c(=C\c4cccc(OCC(=O)O)c4)c(=O)n31)c1cccc(OC(=O)c3ccccc3-c3ccccc3)c1CC2 (stereo not drawn),–,–,–,16.6
26.3,5.2,–,–,–,–,7.38,35.1,O=C(O)c1cccc(-c2ccc(/C=c3\sc4n(c3=O)C(c3ccc(F)cc3)C3=C(N=4)c4ccccc4CC3)o2)c1 (stereo not drawn),25.9,5.85,Dose-dependent effect,13.4
